Earlier results as cited in PMC6764291 (Frontiers in Oncology, 2019).

Legend:
mutant p53 cells = settings: in vitro, considerably higher concentrations than required for wt p53 cell lines; cited from earlier work
Source text: As expected, the two p53 mutated cell lines did n ...

p53 = test system: p53; design: method as in PMID 14704432; settings: cited from earlier work

Structure (SMILES) | effect on mutant p53 cells (mutant p53 cells) | p53-expression (p53)
COc1ccc(C2=N[C@H](c3ccc(Cl)cc3)[C@H](c3ccc(Cl)cc3)N2C(=O)N2CCN(C(C)=O)CC2)c(OC(C)C)c1 [Nutlin-1] | Some effect | –
COc1ccc(C2=N[C@@H](c3ccc(Cl)cc3)[C@@H](c3ccc(Cl)cc3)N2C(=O)N2CCNC(=O)C2)c(OC(C)C)c1 [Nutlin-3] | – | increased p53-expression was directly correlated to increasing concentrations
